This is an account of results in US11661437B2, “Steroid derivative regulators, method for preparing the same, and uses thereof” (priority 2018, dated 2023).

Molecules are shown by their SMILES.

Data set [1] has as its system GABA-A receptor. Nature of the data set: 35S-TBPS binding assay on rat cerebral cortex cell membrane. The arrangement: species or system Sprague-Dawley rat. Particulars: 2 nM 35S-TBPS, GABA added, read-out: 35S-TBPS bindng test, IC50 on inhibiting the TBPS binding activity. How it is done:
1.2.1 Extraction of Cerebral Cortex Cell Membrane:
1. The cerebral cortex of male Sprague-Dawley rat was isolated.
2. A pre-chilled 0.32 M sucrose solution (one tablet of protease inhibitor was added per 100 ml) was added to the cerebral cortex (the volume of sucrose solution was 10 times the volume of the cerebral cortex). The mixture was crushed with a 50 ml glass tissue homogenizer in batches and mixed well.
3. The mixture was centrifuged at 1500 g, 4° C. for 10 minutes, and the supernatant was collected.
4. The mixture was centrifuged at 20000 g, 4° C. for 30 minutes, and the supernatant was discarded.
5. The precipitate was resuspended with the pre-chilled phosphate buffer saline (PBS) (one tablet of protease inhibitor was added per 100 ml). An average of 4 ml of PBS was added per rat, and the mixture was mixed well with a glass tissue homogenizer.
6. The mixture was centrifuged at 10000 g, 4° C. for 10 minutes, and the supernatant was discarded.
7. Steps 5 and 6 were repeated three times.
8. Finally, the precipitate was resuspended with 4 volumes of PBS. The resulting solution was dispensed, frozen in liquid nitrogen, and stored at −80° C.
9. The protein concentration was measured by the bicinchoninic acid (BCA) method.
1.2.2 ^35S-TBPS Binding Assay
1. 230 μL of PBS was added to each well of a well plate with 1.1 ml volume.
2. 60 μL of the cerebral cortex cell membrane (5 μg/μL) solution was added to each well, and the mixture was mixed well.
3. The test compound (3 μL per well) was added, and the plate was incubated at 25° C. for 5 minutes. The DMSO concentration was 1%. The initial compound concentration was 1 NM, and a 3-fold dilution in gradient was carried out to obtain a total of 8 gradients and 2 replicates. 1% DMSO was used as a negative control, and 10 μM P026-2 was used as a positive control.
4. GABA was added at a final concentration of […], and incubated at 25° C. for 5 minutes. 1 mM GABA solution was formulated, and 1.5 μL of the solution was added to each well.
5. ^35S-TBPS was added at a final concentration of 2 nM. The concentration of isotope mother solution was 9.7 μM. After dilution with PBS for 100 times, 6 μL of the diluted isotope solution was added to each well.
6. The plate was incubated at 4° C. for 20 hours.
7. The FilterMate GF/C plate was pre-treated with 0.5% PEI, and incubated at 4° C. for 1 hour.
8. The FilterMate GF/C plate was washed with Universal Harvester twice, 50 ml PBS each time.
9. The reaction solution was transferred to the GF/C plate, and each well was washed 4 times with 900 μL PBS.
10. The washed GF/C plate was placed at 55° C. and dried for 10 minutes.
11. 40 μL of scintillation solution was added to each well, and the CPM value was read with TopCount.
1.2.3 Experimental Data Processing Method:
In the experiment, the CPM (counts per minute) value was read with TopCount. According to the readings of the High control (DMSO) and the Low control (10 μM of the positive compound) experimental groups, the % inhibition was calculated based on the following formula: % Inhibition=100×(CPMHigh control−CPMSample)/(CPMHigh control−CPMLow control)
The IC50 of the compound was calculated according to the following 4-parameter nonlinear logic formula: Y=Bottom+(Top−Bottom)/(1+10^((Log IC50−X)*Hill Slope)),
The effect of the compound of the present invention on the TBPS binding activity was determined by the above test, and the measured IC50 values are shown in Table 1.

Data set [2] in a line: Pharmacokinetic assay in Balb/c mice (plasma and brain tissue). Format: in vivo. As to conditions: male, Balb/c, mouse, in vivo, po, 5 mg/kg; for AUC(0-t): Area under curve AUC0-t; for AUC(0-inf): Area under curve AUC0-∞; for half-life: Half-life t1/2; for MRT: Mean residence time MRT; for Cmax: Plasma concentration Cmax. The protocol:
Balb/c mice were used as test animals. The pharmacokinetic behavior in mice (plasma and brain tissue) of the compounds of Example 2, Example 5, Example 7, Example 12, Example 18, Example 23, Example 26, Example 38, Example 41, Example 50, Example 51 and Example 66 orally administrated at a dose of 5 mg/kg was studied.
Each group had 24 male Balb/c mice. After an overnight fast, Balb/c mice were administrated p.o. with the test compound at an administration dose of 5 mg/kg and an administration volume of 10 mL/kg.
0.2 ml of blood was taken from the heart before administration and at 0, 0.5, 1, 2, 4, 6, 8 and 24 hours after administration. The samples were stored in EDTA-K2 tubes, and centrifuged for 6 minutes at 4° C., 6000 rpm to separate the plasma. The plasma samples were stored at −80° C. The mice were sacrificed with CO2, and the whole brain tissue was taken out, weighed, placed in a 2 mL centrifuge tube and stored at −80° C.
1) 160 μL of acetonitrile was added to 40 μL of the plasma sample for precipitation, and then the mixture was centrifuged for 5-20 minutes at 3500×g.
2) 90 μL of acetonitrile containing the internal standard (100 ng/mL) was added to 30 μL of the plasma and brain homogenate samples for precipitation, and then the mixture was centrifuged for 8 minutes at 13000 rpm.
3) 70 μL of the treated supernatant was taken and added to 70 μL of water, and mixed by vortex for 10 minutes. 20 μL of the mixture was taken to analyze the concentration of the test compound by LC/MS/MS. LC/MS/MS analysis instrument: AB Sciex API 4000 Qtrap.
2.6 Liquid Chromatography Analysis • Liquid chromatography condition: Shimadzu LC-20AD pump. • Chromatographic column: Agilent ZORBAX XDB-C18 (50×2.1 mm, 3.5 μm); Mobile phase: Eluent A was 0.1% formic acid in water, and Eluent B was acetonitrile. • Flow rate: 0.4 mL/min • Elution time: 0-4.0 minutes the eluent is as follows:
The main parameters of pharmacokinetics were calculated by WinNonlin 6.1.

For data set [3], the system named is ICR mice. The data set can be described thus: In vivo pharmacodynamic test in the forced swimming model in mice. Particulars: 10 mpk p.o. How it is done: The antidepressant effect of the compound was evaluated by the forced swimming model in mice.
Male ICR mice (25-35 g) were adapted in the test environment for 3 days before the forced swimming test.
According to the test design, the mice were randomly grouped on the day before the test according to body weight, with 12 mice in each group. Before the test, the compounds of each example were administrated intragastrically according to the Tmax thereof in the brain in mice pharmacokinetic test as follows:
1) Model group (0.5% CMC-Na+1% Tween 80 solution, p.o., 10 mL/kg);
2) Compounds of Example 2, Example 5, Example 7, Example 18, Example 23, Example 26 and Example 50 (10 mg/kg, p.o., 10 mL/kg).
When being administrated, the compounds of each example were suspended in 0.5% CMC-Na-1% Tween 80 solution to the desired concentration.
0.5-1 hour after administration, ICR mice were placed in a forced swimming device (transparent glass drum (water depth 18 cm, water temperature 25-26° C.), one mouse per tank) and forced to swim for 6 minutes. The forced swimming device recorded the floating time of the ICR mice during the entire 6 minutes, and the data of the latter four minutes were used for data analysis. The mice were taken out immediately after the swimming test, wiped dry and put back in their original cages.
Note: The criterion for determining the immobility time is that the mouse stops struggling in water and floats, and there are only slight limb movements to keep the head floating on the water.
3.4 Data Analysis Floating time percentage=100*floating time/240 s.

For `C[C@@]1(O)CC[C@]2(F)C3CC[C@]4(C)[C@@H](C(=O)CNc5ccc(F)cc5F)CC[C@H]4[C@@H]3CC[C@@H]2C1` (stereo partly drawn) [Example 26, 2-((2,4-Difluorophenyl)amino)-1-((3R,5R,8S,10R,13S,14S,17S)-10-fluoro-3-hydroxy-3,13-dimethylhexadecahydro-1H-cyclopenta[a]phenanthren-17-yl)ethan-1-one], the IC50 (commonly the midpoint of a concentration-inhibition curve) in data set [1] worked out at 10.5 nM. Further, in data set [2], the “Area under curve AUC0-t” value came out at 722.9 ng·h/mL, the “Area under curve AUC0-∞” value is 828.4 ng·h/mL, the “Half-life t1/2” value turned out to be 2.06 h and the “Mean residence time MRT” value is 3.84 h. Moreover, in data set [2], the “Plasma concentration Cmax” value is on record as 172.3 ng/mL; the AUC(0-t) – broadly, the area under the concentration-time curve up to a stated or last time point – was 767 ng·h/mL; the AUC(0-inf) – broadly, total exposure, with the tail of the curve extrapolated – came out at 772 ng·h/mL; the half-life (in general, the time in which the quantity being followed falls by half) was 2.57 h. In data set [2], the MRT (in general, the average time that molecules of a dose stay in the body) turned out to be 4.08 h and the highest level (Cmax) was 232 ng/mL. The Tmax (usually the time at which the peak concentration occurs) in data set [2] (Peak time tmax) was determined as 0.5 h. Further, the “Mean (immobility, %)” value in data set [3] (floating time percentage = 100*floating time/240 s) worked out at 53.46%. Also, the “Mean (immobility, s)” value in data set [3] (latter four minutes of 6 min swim) was 128.30 s.
As to `C[C@@]1(O)CC[C@]2(F)C3CC[C@]4(C)[C@@H](C(=O)Cn5cc(C#N)c(Cl)n5)CC[C@H]4[C@@H]3CC[C@@H]2C1` (stereo partly drawn) [Example 51, 3-Chloro-1-(2-((3R,5R,8S,10R,13S,14S,17S)-10-fluoro-3-hydroxy-3,13-dimethylhexadecahydro-1H-cyclopenta[a]phenanthren-17-yl)-2-oxoethyl)-1H-pyrazole-4-carbonitrile], in data set [1], the IC50 was 14.3 nM. Besides, in data set [2], the “Area under curve AUC0-t” value worked out at 1625.9 ng·h/mL, the “Area under curve AUC0-∞” value is 1796.0 ng·h/mL, the “Half-life t1/2” value is reported as 2.19 h and the “Mean residence time MRT” value worked out at 3.28 h. Also, in data set [2], the “Plasma concentration Cmax” value is 512.3 ng/mL, the time of peak concentration (Tmax) was determined as 1 h, the AUC(0-t) worked out at 1960 ng·h/mL and the AUC(0-inf) stood at 2080 ng·h/mL. Also, in data set [2], the half-life is 1.93 h; the MRT was found to be 2.65 h; the Cmax (in general, the peak of the concentration-time curve) stood at 711 ng/mL. The Tmax in data set [2] (Peak time tmax) turned out to be 0.5 h.
For `Cc1nn(CC(=O)[C@H]2CC[C@H]3[C@@H]4CC[C@@H]5C[C@](C)(O)CC[C@]5(F)[C@H]4CC[C@]23C)cc1C#N` [Example 38, 1-(2-((3R,5R,8S,9S,10R,13S,14S,17S)-10-Fluoro-3-hydroxy-3,13-dimethylhexadecahydro-1H-cyclopenta[a]phenanthren-17-yl)-2-oxoethyl)-3-methyl-1H-pyrazole-4-carbonitrile], the IC50 in data set [1] came out at 34 nM. In data set [2], the “Area under curve AUC0-t” value was determined as 1216.1 ng·h/mL, the “Area under curve AUC0-∞” value was 1230.2 ng·h/mL, the “Half-life t1/2” value is reported as 1.14 h and the “Mean residence time MRT” value is 1.6 h. Besides, in data set [2], the “Plasma concentration Cmax” value is recorded as 746.7 ng/mL, the AUC(0-t) worked out at 1950 ng·h/mL, the area under the curve AUC(0-inf) was determined as 1970 ng·h/mL and the half-life is 1.08 h. For the same compound, in data set [2], the MRT was 1.7 h and the Cmax turned out to be 1110 ng/mL. Moreover, in data set [2] (Peak time tmax), the Tmax was found to be 0.5 h.
As to `Cc1nnn(CC(=O)[C@H]2CC[C@H]3[C@@H]4CC[C@@H]5C[C@](C)(O)CC[C@]5(F)[C@H]4CC[C@]23C)n1` [Example 41, 1-((3R,5R,8S,9S,10R,13S,14S,17S)-10-Fluoro-3-hydroxy-3,13-dimethylhexadecahydro-1H-cyclopenta[a]phenanthren-17-yl)-2-(5-methyl-2H-tetrazol-2-yl)ethan-1-one], in data set [1], the IC50 turned out to be 13.6 nM. Moreover, in data set [2], the “Mean residence time MRT” value turned out to be 0.91 h, the “Plasma concentration Cmax” value is given as 625.3 ng/mL, the Tmax amounted to 0.5 h and the MRT was 0.94 h. In data set [2], the highest level (Cmax) was 1230 ng/mL.
Turning to `C[C@@]1(O)CC[C@@]2(F)[C@H](CC[C@H]3[C@@H]4CC[C@H](C(=O)COc5cnc(C(F)(F)F)nc5)[C@@]4(C)CC[C@@H]32)C1` [Example 66, 1-((3R,5R,8S,9S,10R,13S,14S,17S)-10-Fluoro-3-hydroxy-3,13-dimethylhexadecahydro-1H-cyclopenta[a]phenanthren-17-yl)-2-((2-(trifluoromethyl)pyrimidin-5-yl)oxy)ethan-1-one], the IC50 in data set [1] came to 27 nM. In addition, in data set [2], the “Half-life t1/2” value is given as 3.60 h, the “Mean residence time MRT” value was 5.01 h, the Tmax is 1 h and the half-life was 4.39 h. Moreover, the MRT in data set [2] was 5.54 h. Moreover, the Tmax in data set [2] (Peak time tmax) is 0.5 h.
`C[C@@]1(O)CC[C@@]2(F)[C@H](CC[C@H]3[C@@H]4CC[C@H](C(=O)Cn5ncnn5)[C@@]4(C)CC[C@@H]32)C1` [Example 12, 1-((3R,5R,8S,9S,10R,13S,14S,17S)-10-Fluoro-3-hydroxy-3,13-dimethylhexadecahydro-1H-cyclopenta[a]phenanthren-17-yl)-2-(2H-tetrazol-2-yl)ethan-1-one]: the IC50 in data set [1] stood at 13.5 nM. In data set [2], the “Mean residence time MRT” value is 0.73 h, the Tmax amounted to 0.5 h and the MRT is 0.86 h.
